Measured values taken from article PMC4326827, “Biophysical Studies on Interactions and Assembly of Full-size E3 Ubiquitin Ligase” (The Journal of Biological Chemistry, 2014).
Values belong to the compound of their own block, whether it stands above or below them. *: point of attachment. Biotin = O=C1N[C@H]2[C@H](CS[C@H]2CCCCC(=O)*)N1; Ahx = NCCCCCC(=O)O

Key:
SOCS2-EloBC = target: T1, SOCS2-EloBC (Homo sapiens, UniProt O14508+Q15369+Q15370); assay: ITC of GHR peptides and phosphotyrosine into SOCS2-EloBC; assay type: binding; conditions: 298 K
T1 construct: Recombinant human SOCS2 (amino acids 32–198); His6 (cleaved yes); made in house; host or cells: Escherichia coli BL21(DE3)
T1 sequence (O14508 32-198): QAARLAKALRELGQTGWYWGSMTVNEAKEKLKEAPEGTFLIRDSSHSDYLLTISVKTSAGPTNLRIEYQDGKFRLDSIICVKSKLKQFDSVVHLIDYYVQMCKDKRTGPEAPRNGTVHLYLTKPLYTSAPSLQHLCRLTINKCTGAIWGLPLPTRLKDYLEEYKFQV
T1 sequence (Q15369 17-112 partner limits assumed): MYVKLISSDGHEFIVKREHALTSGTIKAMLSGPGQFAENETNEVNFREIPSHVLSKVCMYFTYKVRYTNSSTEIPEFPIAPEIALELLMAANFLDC
T1 sequence (Q15370 whole entry partner, the tested form may be a part): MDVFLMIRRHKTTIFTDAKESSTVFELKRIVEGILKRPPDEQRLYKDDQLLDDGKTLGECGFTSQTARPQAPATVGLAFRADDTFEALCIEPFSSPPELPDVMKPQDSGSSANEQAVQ

[1] = tested on: CRL5^SOCS2 (SOCS2, EloB, EloC, Cul5, and Rbx2); assay: Peptide bead pull-down from K562 cell lysate, CRL5^SOCS2 components; assay type: binding; conditions: immobilized peptide beads, human K562 total cell lysate, 2 h at 4 °C, tandem mass tags MS
Excerpt: (§1) After washing, bound proteins were eluted with SDS-sample buffer and prepared for tandem mass tags labeling and MS analysis as described previously ([17]).

[2] = target: GHR_pY595-SOCS2-EloBC complex; assay: ITC of Cul5NTD into GHR_pY595-SOCS2-EloBC (cooperativity); assay type: binding, human; conditions: titration of Cul5NTD into GHR_pY595-SOCS2-EloBC complex
Procedure: Experiments were conducted using an iTC200 microcalorimeter instrument (GE Healthcare). […] Peptides and Tyr(P) were dissolved in the same buffer. Obtained data were analyzed and fitted using the Microcal Origin version 7.0 software package. Binding enthalpy, dissociation constants, and stoichiometry were determined by fitting the data using a one-set-of-site binding model.

[3] = tested on: CRL1^FBXO31 E3 ligase (FBXO31, Rbx1, Cul1, and Skp1); assay: Peptide bead pull-down from K562 cell lysate, CRL1^FBXO31 subunits; assay type: binding; conditions: peptide beads, human K562 cell lysate, 2 h at 4 °C, MS
Excerpt: as §1

SOCS2 = SOCS2 (UniProt O14508); assay: peptide-bead pull-down from lysate, TMT MS; conditions: reference: GHR_Y595 peptide beads; sites Y595

Compound: N[C@@H](Cc1ccc(OP(=O)(O)O)cc1)C(=O)O [Tyr(P), phosphotyrosine]
- Kd (SOCS2-EloBC; 350 μM peptide or 2 mM Tyr(P) into 30 μM SOCS2-EloBC, 50 mM HEPES, pH 7.5, 250 mM NaCl, 0.5 mM TCEP, one-set-of-site model): 191 µM
- binding affinity weaker than for phosphorylated peptide GHR_pY595 (SOCS2-EloBC; ratio of Kd): ~100 -fold

Compound: Biotin-aminohexanoic acid-PVPDpYTSIHIV-amide [GHR_pY595-beads]
- capture of CRL5^SOCS2 components on peptide beads [1]: endogenous components of CRL5^SOCS2 E3 ligase were only captured by GHR_pY595-beads

Compound: Cul5NTD: Recombinant human Cul5NTD (N-terminal domain, residues 1–386) expressed in E. coli
- change in Kd or ΔH (cooperativity) [2]: No change in the Kd or ΔH values was observed

Compound: GHR_Y595-containing beads: biotinylated non-phosphorylated GHR_Y595 peptide immobilized on high capacity Neutravidin beads ({Biotin-Ahx}-PVPDYTSIHIV-NH2; SMILES CC[C@H](C)[C@H](NC(=O)[C@H](CO)NC(=O)[C@@H](NC(=O)[C@H](Cc1ccc(O)cc1)NC(=O)[C@H](CC(=O)O)NC(=O)[C@@H]1CCCN1C(=O)[C@@H](NC(=O)[C@@H]1CCCN1C(=O)CCCCCNC(=O)CCCC[C@@H]1SC[C@@H]2NC(=O)N[C@@H]21)C(C)C)[C@@H](C)O)C(=O)N[C@@H](Cc1c[nH]cn1)C(=O)N[C@H](C(=O)N[C@H](C(N)=O)C(C)C)[C@@H](C)CC)
- capture of CRL5^SOCS2 components on peptide beads [1]: no significant capturing from cell lysates was observed
- capture of CRL1^FBXO31 subunits [3]: significant recruitment of the four CRL1^FBXO31 subunits was also observed

- binding against the reference (SOCS2): gained
Compound: growth hormone receptor (GHR) (from UniProt P10912) GHR_pY595 peptide beads
